Measurements from US20240417405A1, “Substituted Spiro Derivatives” (Janssen Pharmaceutica NV, priority 2021, published 2024).
pIC50: −log10 of the molar value. Where two headings read alike, the source gives them in different places.

Key:
MOLM14 cells = assay: Proliferation assay, spheroid-like growth, MOLM14 (MLL-AF9 rearranged); assay type: cell-based, human; details: 8 days, confluence as measure of spheroid size, read-out: spheroid assay_OneTime MOLM14 IC50
Procedure: The anti-proliferative effect of menin/MLL protein/protein interaction inhibitor test compounds was assessed in human leukemia cell lines. The cell line MOLM14 harbors a MLL translocation and expresses the MLL fusion proteins MLL-AF9, respectively, as well as the wildtype protein from the second allele. […] KO-52 was used as a control cell line containing two MLL (KMT2A) wildtype alleles in order to exclude compounds that display general cytotoxic effects.
MOLM14 cells were cultured in RPMI-1640 (Sigma Aldrich) supplemented with 10% heat-inactivated fetal bovine serum (HyClone), 2 mM L-glutamine (Sigma Aldrich) and 50 μg/ml gentamycin (Gibco). KO-52 cell lines were propagated in alpha-MEM (Sigma Aldrich) supplemented with 20% heat-inactivated fetal bovine serum (HyClone), 2 mM L-glutamine (Sigma Aldrich) and 50 μg/ml gentamycin (Gibco).
In order to assess the anti-proliferative effects, 200 MOLM14 cells, or 300 KO-52 cells were seeded in 200 μl media per well in 96-well round bottom, ultra-low attachment plates (Costar, catalogue number 7007). Cell seeding numbers were chosen based on growth curves to ensure linear growth throughout the experiment. Test compounds were added at different concentrations and the DMSO content was normalized to 0.3%. Cells were incubated for 8 days at 37° C. and 5% CO2. Spheroid like growth was measured in real-time by live-cell imaging (IncuCyteZOOM, Essenbio, 4× objective) acquiring images at day 8. Confluence (%) as a measure of spheroid size was determined using an integrated analysis tool.
In order to determine the effect of the test compounds over time, the confluence in each well as a measure of spheroid size, was calculated. Confluence of the highest dose of a reference compound was used as baseline for the LC (Low control) and the confluence of DMSO treated cells was used as 0% cytotoxicity (High Control, HC).
Absolute IC50 values were calculated as percent change in confluence as follows:
LC=Low Control: cells treated with e.g. 1 μM of the cytotoxic agent staurosporin, or e.g. cells treated with a high concentration of an alternative reference compound
GraphPad Prism (version 7.00) was used to calculate the IC50. Dose-response equation was used for the plot of % Effect vs Log 10 compound concentration with a variable slope and fixing the maximum to 100% and the minimum to 0%.

[1] = biological target: T1, menin/MLL (terbium chelate-labeled menin, FITC-MBM1 peptide) (Homo sapiens, UniProt O00255, T541A); assay: Menin/MLL homogenous time-resolved fluorescence (HTRF) assay; assay type: binding; details: 30 min incubation
T1 construct: Menin (a.a 1-610-6xhis tag)
T1 sequence (O00255 with tags, fused parts or gaps T541A): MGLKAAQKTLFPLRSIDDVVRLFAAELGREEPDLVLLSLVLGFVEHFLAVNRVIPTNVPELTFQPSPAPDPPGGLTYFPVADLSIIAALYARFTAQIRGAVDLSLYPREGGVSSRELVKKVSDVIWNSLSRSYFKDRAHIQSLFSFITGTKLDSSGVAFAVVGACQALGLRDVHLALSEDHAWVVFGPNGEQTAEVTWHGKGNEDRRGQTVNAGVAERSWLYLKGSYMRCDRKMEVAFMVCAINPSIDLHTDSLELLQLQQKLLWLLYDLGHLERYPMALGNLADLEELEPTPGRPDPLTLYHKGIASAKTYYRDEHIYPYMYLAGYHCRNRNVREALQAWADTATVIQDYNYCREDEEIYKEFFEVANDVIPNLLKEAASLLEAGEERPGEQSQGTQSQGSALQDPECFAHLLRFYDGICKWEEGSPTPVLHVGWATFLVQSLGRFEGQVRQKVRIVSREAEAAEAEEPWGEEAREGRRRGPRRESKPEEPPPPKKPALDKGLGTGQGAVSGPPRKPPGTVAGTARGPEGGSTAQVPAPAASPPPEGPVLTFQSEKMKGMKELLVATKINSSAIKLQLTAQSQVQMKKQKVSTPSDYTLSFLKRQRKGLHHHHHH
Procedure: 1) Menin/MLL Homogenous Time-Resolved Fluorescence (HTRF) Assay
To an untreated, white 384-well microtiter plate was added 40 nL 200× test compound in DMSO and 4 μL 2× terbium chelate-labeled menin (vide infra for preparation) in assay buffer (40 mM Tris.HCl, pH 7.5, 50 mM NaCl, 1 mM DTT (dithiothreitol) and 0.05% Pluronic F-127). After incubation of test compound and terbium chelate-labeled menin for 30 min at ambient temperature, 4 μL 2× FITC-MBM1 peptide (FITC-β-alanine-SARWRFPARPGT-NH2 (SEQ ID NO: 3)) (“FITC” means fluorescein isothiocyanate) in assay buffer was added, the microtiter plate centrifuged at 1000 rpm for 1 min and the assay mixtures incubated for 15 min at ambient temperature. The relative amount of menin FITC-MBM1 complex present in an assay mixture is determined by measuring the homogenous time-resolved fluorescence (HTRF) of the terbium/FITC donor/acceptor fluorophore pair using an EnVision microplate reader (ex. 337 nm/terbium em. 490 nm/FITC em. 520 nm) at ambient temperature. The degree of fluorescence resonance energy transfer (the HTRF value) is expressed as the ratio of the fluorescence emission intensities of the FITC and terbium fluorophores (F^em 520 nm/F^em 490 nm). The final concentrations of reagents in the binding assay are 200 pM terbium chelate-labeled menin, 75 nM FITC-MBM1 peptide and 0.5% DMSO in assay buffer. Dose-response titrations of test compounds are conducted using an 11 point, four-fold serial dilution scheme, starting typically at 10 μM.
Compound potencies were determined by first calculating % inhibition at each compound concentration according to equation 1:
% inhibition=((HC−LC)−(HTRF^compound−LC))/(HC−LC))*100 (Eqn 1)
Where LC and HC are the HTRF values of the assay in the presence or absence of a saturating concentration of a compound that competes with FITC-MBM1 for binding to menin, and HTRF^compound is the measured HTRF value in the presence of the test compound. HC and LC HTRF values represent an average of at least 10 replicates per plate.
% inhibition=Bottom+(Top−Bottom)/(1+10^((logIC50−log[cmpd])*h)) (Eqn 2)
Where Bottom and Top are the lower and upper asymptotes of the dose-response curve, respectively, IC50 is the concentration of compound that yields 50% inhibition of signal and h is the Hill coefficient. IC50 values below 0.1 nM in the HTRF assay were reported as 0.1 nM in the Table below (detection limit).
Preparation of Terbium cryptate labeling of Menin: Menin (a.a 1-610-6xhis tag (“6xhis tag” disclosed as SEQ ID NO: 2), 2.3 mg/mL in 20 mM Hepes (2-[4-(2-Hydroxyethyl)-1-piperazinyl]ethane sulfonic acid), 80 mM NaCl, 5 mM DTT (Dithiothreitol), pH 7.5) was labeled with terbium cryptate as follows. 200 μg of Menin was buffer exchanged into 1× Hepes buffer. 6.67 μM Menin was incubated with 8-fold molar excess NHS (N-hydroxysuccinimide)-terbium cryptate for 40 minutes at room temperature. Half of the labeled protein was purified away from free label by running the reaction over a NAP5 column with elution buffer (0.1 M Hepes, pH 7+0.1% BSA (bovine serum albumin)). The other half was eluted with 0.1 M phosphate buffered saline (PBS), pH7. 400 μl of eluent was collected for each, aliquoted and frozen at −80° C. The final concentration of terbium-labeled Menin protein was 115 μg/mL in Hepes buffer and 85 μg/mL in PBS buffer, respectively.

Row | pIC50 (MOLM14 cells; Homo sapiens, MOLM-14, 192 h) | pIC50 [1] | pIC50 (MOLM14 cells) | Compound
1 | 8.40 | 9.82 | – | CC(C)C([C@H]1C[C@@H](Nc2nnc(N)s2)C1)N1CC2(CCN(c3ncnnc3Oc3ccc(F)cc3-c3cncnc3C3CC3)C2)C1 (single isomer, unassigned) [Compound 488]
2 | 7.62 | 9.85 | – | CNC(=O)c1cnc(N[C@H]2C[C@@H]([C@H](C)N3CC4(CCN(c5ncnnc5Oc5ccc(F)cc5-c5cncnc5C5CC5)C4)C3)C2)s1 (single isomer, unassigned) [Compound 455]
3 | 8.15 | 10.00 | – | COC1(C)CCN([C@H]2C[C@@H]([C@H](C(C)C)N3CC4(CCN(c5ncnnc5Oc5ccc(F)cc5-c5nnccc5C5CC5)C4)C3)C2)C1 (mixture of isomers) [Compound 275]
4 | 6.54 | ~9.41 | – | CC(C)[C@H]([C@H]1C[C@@H](Nc2ccnc3[nH]c(=O)ccc23)C1)N1CC2(CCN(c3ncnnc3Oc3ccc(F)cc3-c3cncnc3C3CC3)C2)C1 (single isomer, unassigned) [Compound 420]
5 | 8.34 | 9.74 | – | CC(C)[C@H]([C@H]1C[C@@H](Nc2n[nH]c3ncccc23)C1)N1CC2(CCN(c3ncnnc3Oc3ccc(F)cc3-c3cncnc3C3CC3)C2)C1 (single isomer, unassigned) [Compound 448]
6 | 7.80 | 10.05 | – | CC(C)C([C@H]1C[C@@H](Nc2cccc(CN3CCOCC3)n2)C1)N1CC2(CCN(c3ncnnc3Oc3ccc(F)cc3-c3cncnc3C3CC3)C2)C1 (single isomer, unassigned) [Compound 428]
7 | – | 9.97 | 8.80 | CC(=O)N1CC2CN([C@H]3C[C@@H]([C@H](C(C)C)N4CC5(CCN(c6ncnnc6Oc6ccc(F)cc6-c6cnc(C)nc6C6CC6)C5)C4)C3)CC2C1 (some centres unmarked) [Compound 378]
8 | 7.22 | 9.52 | – | CC(C)[C@H]([C@H]1C[C@@H](N2CC3(CNC(=O)O3)C2)C1)N1CC2(CCN(c3ncnnc3Oc3ccc(F)cc3-c3cncnc3C3CC3)C2)C1 (single isomer, unassigned) [Compound 317]
9 | 8.52 | 10.08 | – | CC(=O)N1CC2(C1)CN([C@H]1C[C@@H]([C@H](C(C)C)N3CC4(CCN(c5ncnnc5Oc5ccc(F)cc5-c5cnc(C)nc5C5CC5)C4)C3)C1)C2 [Compound 394]
10 | 7.96 | 10.00 | – | CC(C)[C@@H]([C@H]1C[C@@H](N2CC3(CCCO3)C2)C1)N1CC2(CCN(c3ncnnc3Oc3ccc(F)cc3-c3nnccc3C3CC3)C2)C1 (single isomer, unassigned) [Compound 265]
11 | 8.40 | 9.74 | – | CC(=O)N[C@H]1[C@@H]2CN([C@H]3C[C@@H]([C@H](C(C)C)N4CC5(CCN(c6ncnnc6Oc6ccc(F)cc6-c6cnc(C)nc6C6CC6)C5)C4)C3)C[C@@H]21 [Compound 390]
12 | 7.00 | 9.21 | – | CC(=O)N1CC2CN([C@H]3C[C@H]([C@H](C(C)C)N4CC5(CCN(c6ncnnc6Oc6ccc(F)cc6-c6cnc(C)nc6C6CC6)C5)C4)C3)CC2C1 (some centres unmarked) [Compound 376]
13 | 7.60 | 9.41 | – | CNC(=O)c1nnc(N[C@H]2C[C@@H]([C@@H](C(C)C)N3CC4(CCN(c5ncnnc5Oc5ccc(F)cc5-c5cncnc5C5CC5)C4)C3)C2)o1 (single isomer, unassigned) [Compound 439]
14 | 6.17 | 9.04 | – | C[C@@H]([C@H]1C[C@@H](N)C1)N1CC2(CCN(c3ncnnc3Oc3ccc(F)cc3-c3cncnc3C3CC3)C2)C1 (single isomer, unassigned) [Compound 441]
15 | 8.00 | 9.82 | – | CC(C)C(C1CC(Nc2ncc3cn[nH]c3n2)C1)N1CC2(CCN(c3ncnnc3Oc3ccc(F)cc3-c3cncnc3C3CC3)C2)C1 (single isomer, unassigned) [Compound 411]
16 | 8.30 | 10.00 | – | CC(C)[C@H]([C@H]1C[C@@H](N2CCC(C(=O)N(C)C)C2)C1)N1CC2(CCN(c3ncnnc3Oc3ccc(F)cc3-c3cncnc3C3CC3)C2)C1 (mixture of isomers) [Compound 210]
